Experimental data taken from patent US20080038208A1, “Pharmaceutical/cosmetic compositions comprising the lysine-d-proline-valine tripeptide” (SOCIETE L'OREAL S.A., priority 1995, published 2008).

Columns and labels:
[1] = tested on: interleukin-1α; assay: Production of interleukin-1α in the supernatant of plucked hairs from a patient with inflammatory alopecia (ELISA); assay type: cell-based, human; conditions: 20 hours; for % of inhibition: IL-1α in supernatant of plucked hairs; for IL-1α: supernatant of plucked hairs, control 21.8 pg/ml
Description: Dose-response activity of the Ac-KPV-NH2* tripeptide with respect to the production of interleukin-1α in the supernatant of plucked hairs emanating from a patient afflicted with inflammatory alopecia.
Plucked hairs were removed from the region of the vertex of a volunteer suffering from inflammatory alopecia. They were placed in a Williams' survival medium E (marketed by Gibco BRL) containing penicillin G (100 units/ml), streptomycin S (100 μg/ml) and amphotericin (250 ng/ml), in the presence or in the absence (control) of the Ac-KPV-NH2* tripeptide, synthesized to order by Neosystem S. A. (Strasbourg), at the doses indicated. After incubating for 20 hours, the culture supernatants were collected in a tube and then centrifuged for 5 minutes at 14,000 revolutions/minute (Eppendorff centrifuge, model 5415C). The supernatants were then collected in a clean tube and placed at 4° C.
The interleukin-1α concentration was then evaluated with respect to 100 μl of supernatant by means of a Biotrak ELISA kit marketed by Amersham, according to the manufacturer's instructions.

[2] = tested on: mRNA of IL-1α; assay: Expression of IL-1α messenger RNA in plucked hairs (RT-PCR, relative to GAPDH), 3 h 30 min; assay type: cell-based, human; conditions: treated batch, band intensity divided by GAPDH, control batch 100%
Description: (§1) Inhibition of the expression of the messenger RNAs of proinflammatory and inflammatory cytokines in response to the Ac-KPV-NH2* tripeptide.
(§2) Ten plucked hairs were removed from the region of the vertex of a volunteer suffering from inflammatory alopecia. These were placed in a Williams' survival medium E (marketed by Gibco BRL) containing penicillin G (100 units/ml), streptomycin S (100 μg/ml) and amphotericin (250 ng/ml), in the presence (treated batch) or in the absence (control) of the Ac-KPV-NH2* tripeptide, synthesized to order by Neosystem S. A., (Strasbourg).
(§3) After incubating for 3 h, 30 min, the messenger RNAs corresponding to these two batches of hair were purified from a “quick prep mRNA purification kit” marketed by Pharmacia. DNAs complementary to these mRNAs were then prepared by means of a reverse transcription kit marketed by Pharmacia, the manufacturer's instructions being followed, and then subjected to a polymerization chain reaction (PCR) stage by using primers specific for the mRNAs of glyceraldehyde-3-phosphate dehydrogenase (GAPDH), of IL-1α, of the type-1 IL-1 receptor and of the type-2 IL-1 receptor. The amounts of amplified DNA were then evaluated by electrophoresis on 1.5% agarose gel in the presence of ethidium bromide. […]

[3] = tested on: mRNA of the type-1 IL-1 receptor (IL-1R1); assay: Expression of type-1 IL-1 receptor messenger RNA in plucked hairs (RT-PCR, relative to GAPDH), 3 h 30 min; assay type: cell-based, human; conditions: treated batch, band intensity divided by GAPDH, control batch 100%
Description: as §1, §2, §3

[4] = tested on: mRNAs of IL-1α; assay: Expression of the mRNAs of IL-1α calculated from the IL-1α/GAPDH ratio, plucked hairs of two donors, 20 hours; assay type: cell-based, human
Description: Inhibiting effect of Ac-KPV-NH2* on the expression of the mRNAs of IL-1α, calculated from the IL-1α/GAPDH ratio.
5 hairs were plucked from two different donors and were then incubated for 20 hours at 37° C. (5% CO2) in Williams' medium E supplemented with antibiotics and with glutamine and in the presence of Ac-KPV-NH2* at the concentrations indicated. A control was carried out in which there was no peptide added.

[5] = tested on: catagenic papilla cells (PGE2 production); assay: Inhibition of IL-1α-induced production of PGE2 by catagenic papilla cells cultured in vitro; assay type: cell-based; conditions: 10 μM tripeptide; for PGE2: IL-1α 10 ng/ml for 20 hours, control 9.2, IL-1α alone 100.2; for % inhibition: PGE2 production induced by IL-1α 10 ng/ml
Description: Measurement of the inhibition of the production of PGE2 by catagenic papilla cells cultured in vitro.
The cells (1,000 per well), at the 24th passage, were incubated in 199 medium marketed by Gibco in the presence of 1% foetal calf serum and of antibiotics. 20 hours later, the medium was replaced by an identical medium, but containing the tripeptides to be evaluated at a final concentration of 10 μM. 5 hours later, interleukin-1α was added at a final concentration of 10 ng/ml. 20 hours later, the PGE2 levels produced by the cultured papilla cells were evaluated by means of a Biotrack kit marketed by Amersham, the manufacturer's instructions being followed. This method thus made it possible to evaluate the inhibiting effect of these tripeptides on the production of PGE2 induced by a proinflammatory cytokine: interleukin-1α.

Row | % of expression IL-1R1 [3] [%] | Substance | % of inhibition ([1]; 1 μM) [%] | IL-1α ([1]; 1 μM) [pg/mL] | % of inhibition ([1]; 10 μM) [%] | IL-1α ([1]; 10 μM) [pg/mL] | % of expression IL-1α [2] [%] | expression of the mRNAs of IL-1α (IL-1α/GAPDH ratio), % of the control ([4]; donor A, 1 μM) [%] | expression of the mRNAs of IL-1α (IL-1α/GAPDH ratio), % of the control ([4]; donor A, 10 μM) [%] | expression of the mRNAs of IL-1α (IL-1α/GAPDH ratio), % of the control ([4]; donor B, 0.1 μM) [%] | expression of the mRNAs of IL-1α (IL-1α/GAPDH ratio), % of the control ([4]; donor B, 1 μM) [%] | expression of the mRNAs of IL-1α (IL-1α/GAPDH ratio), % of the control ([4]; donor B, 10 μM) [%] | PGE2 [5] [pg/mL] | % inhibition [5] [%]
1 | 26 | Acetyl-(D)Lys-(D)Pro-(D)Val-NH2 [Ac—KPV—NH2*] | 49 | 11.1 | 72 | 6.1 | 0 | 51 | 28 | 53 | 62 | 28.7 | 28.0 | 78
2 |  | Acetyl-(L)Lys-(D)Pro-(L)Val-NH2 [Ac—K—(D)P—V—NH2***] |  |  |  |  |  |  |  |  |  |  | 24.6 | 75
3 |  | Acetyl-(L)Lys-(L)Pro-(L)Val-NH2 [Ac—K—P—V—NH2**, reference compound] |  |  |  |  |  |  |  |  |  |  | 10.0 | 90
